Measured values reported in ChEMBL document CHEMBL1141233, “3-(5-Chloro-2,4-dihydroxyphenyl)-pyrazole-4-carboxamides as inhibitors of the Hsp90 molecular chaperone” (Bioorg Med Chem Lett, 2005).

Tests used:
[1] = test system: HCT-116; test: Inhibition of cell proliferation in HCT116 human colon cancer cell line; assay type: functional
[2] = target: Heat shock protein HSP90 (Homo sapiens, UniProt P07900+P08238); test: Binding affinity to Hsp90 by fluorescent polarization assay; assay type: protein assay

SMILES	GI50 [1]	IC50 [2]
NS(=O)(=O)c1ccc(CNC(=O)c2cn[nH]c2-c2cc(Cl)c(O)cc2O)cc1	> 80 µM	–
COc1cccc(CNC(=O)c2c[nH]nc2-c2cc(Cl)c(O)cc2O)c1	> 80 µM	10.7 µM
O=C(Nc1ccc(O)cc1)c1c[nH]nc1-c1cc(Cl)c(O)cc1O	> 80 µM	14.7 µM
COc1cccc(NC(=O)c2c[nH]nc2-c2cc(Cl)c(O)cc2O)c1	> 80 µM	11.7 µM
COc1ccc(NC(=O)c2c[nH]nc2-c2cc(Cl)c(O)cc2O)cc1	> 80 µM	6 µM
O=C(NCc1ccc(F)cc1)c1cn[nH]c1-c1cc(Cl)c(O)cc1O	56.2 µM	5.35 µM
COc1ccc(CNC(=O)c2c[nH]nc2-c2cc(Cl)c(O)cc2O)cc1	60.7 µM	6 µM
CC(=O)Nc1ccc(NC(=O)c2c[nH]nc2-c2cc(Cl)c(O)cc2O)cc1	59.7 µM	31.5 µM
O=C(NCc1cccc(C(F)(F)F)c1)c1cn[nH]c1-c1cc(Cl)c(O)cc1O	45 µM	5.4 µM
COc1ccc(N(C)C(=O)c2c[nH]nc2-c2cc(Cl)c(O)cc2O)cc1	–	> 50 µM

Next, values leading:

GI50 [1]	IC50 [2]	SMILES
–	7.1 µM	O=C(Nc1ccccc1)c1cn[nH]c1-c1cc(Cl)c(O)cc1O
> 80 µM	12.8 µM	O=C(NCc1ccccc1)c1cn[nH]c1-c1cc(Cl)c(O)cc1O
11.6 µM	–	CC(=O)c1ccc(NC(=O)c2cn[nH]c2-c2cc(Cl)c(O)cc2O)cc1
–	35.6 µM	O=C(NCc1ccco1)c1cn[nH]c1-c1cc(Cl)c(O)cc1O
–	> 50 µM	O=C(Nc1ccccn1)c1cn[nH]c1-c1cc(Cl)c(O)cc1O
> 80 µM	6.9 µM	O=C(Nc1ccc(Cl)cc1)c1cn[nH]c1-c1cc(Cl)c(O)cc1O
